Measured values reported in US20080269293A1, “PYRAZOLE DERIVATIVES AS ANTI-PLATELET AND ANTI-THROMBOTIC AGENTS” (Pfizer Inc., priority 2006, published 2008).

Target: T1, platelet P2Y1 receptor (Homo sapiens, UniProt P47900)
T1 construct: expressed in transfected cells
Experiment: P2Y1 receptor binding assay ([β-33P]-2-thiomethyl ADP)
Details: binding of 0.3 nM [β-33P]-2-thiomethyl ADP, hP2Y1 expressing 132N1 cell membrane, 25° C., 60 minutes
Procedure: Conducting P2Y, Receptor Binding Assay
[β−^33P]-2-thiomethyl ADP (2100 Ci/mmol) was purchased from PerkinElmer, Protease Inhibitors Complete, EDTA-free, was purchased from Roche, and ADP (Adenosine diphosphate), MRS2179, and 2-thiomethy ADP (2-Me-S-ADP) were purchased from Sigma Chemical Co.
Binding of 0.3 nM [β-^33P]-2-thiomethyl ADP to platelet P2Y1 receptor in 132N1 cell membrane was carried out in triplicate at 25° C. with 96 well plate (Corning, 3365). Nonspecific binding was defined as binding in the presence of 1 μM of 2-Me-S-ADP. One […] of dimethyl sulfoxide (DMSO) or 1 μL of DMSO (Sigma-Aldrich, 472301) containing a test compound diluted to final assay concentrations of 0.1 nM to 1 mM were placed into each well of a Corning 96-well plate. A volume of 60 μL of buffer: 50 mM Tris pH 7.5 (Sigma, T-2194), 1 mM EDTA (Gibco, 15575-038) and 100 mM NaCl (Gibco, 200740-011) containing 0.3 nM [β-^33P]-2-thiomethyl ADP 40 μL of hP2Y1 expressing 132N1 cell membrane prep was added to each well. After incubation on shaker for 60 minutes, The contents of the wells are filtered and washed 8 times with Tomtec Cell Harvester through UniFilter 96, GF/B plates (PerkinElmer, 6005177) Forty five microliters […] Scintillation cocktail (Ultima-Flo-M) was added into each well and plates counted on a Trilux Microbeta Counter.
• 1. Add 1 μL DMSO or compounds into the wells according to the protocol. • 2. Add 60 μL incubation buffer with [β-^33P]-2-thiomethyl ADP into each well. • 3. Add 40 μL hP2Y1 expressing 132N1 cell membrance prep. Incubate 60 minutes on top of the shaker (IKA Shutter MTS4). • 4. Filter and wash 8× with Tomtec Cell Harvester through UniFilter GF/B plates (PerkinElmer, 6005177). • 5. Add 45 μL scintillation cocktail into each well and plates counted on a Trilux Microbeta Counter.

T1 sequence (P47900 whole entry): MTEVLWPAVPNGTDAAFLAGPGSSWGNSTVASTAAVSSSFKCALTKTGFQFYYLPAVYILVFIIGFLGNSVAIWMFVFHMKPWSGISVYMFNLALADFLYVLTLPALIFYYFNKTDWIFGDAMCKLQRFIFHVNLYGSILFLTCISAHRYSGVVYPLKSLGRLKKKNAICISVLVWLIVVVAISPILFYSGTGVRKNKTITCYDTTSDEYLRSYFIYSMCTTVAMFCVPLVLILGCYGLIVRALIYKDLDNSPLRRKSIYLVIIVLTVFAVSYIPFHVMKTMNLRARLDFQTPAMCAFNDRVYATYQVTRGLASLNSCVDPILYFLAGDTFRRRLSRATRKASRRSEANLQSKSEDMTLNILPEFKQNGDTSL

Row | Compound | IC50 [µM]
1 | 1-Phenyl-5-{2-[3-(4-trifluoromethoxy-phenyl)-ureido]-phenoxy}-1H-pyrazole-3-carboxylic acid methyl ester [Example 26] | > 10
2 | Cc1cc(Oc2ccccc2NC(=O)Nc2ccc(OC(F)(F)F)cc2)n(-c2ccccc2C)n1 [Example 1, 1-[2-(5-Methyl-2-o-tolyl-2H-pyrazol-3-yloxy)-phenyl]-3-(4-trifluoromethoxy-phenyl)-urea] | 0.152
3 | Cc1cc(Oc2ccccc2NC(=O)Nc2ccc(OC(F)(F)F)cc2)n(-c2ccccc2Cl)n1 [Example 2, 1-{2-[2-(2-Chloro-phenyl)-5-methyl-2H-pyrazol-3-yloxy]-phenyl}-3-(4-trifluoromethoxy-phenyl)-urea] | 0.089
4 | CCc1ccccc1-n1nc(C)cc1Oc1ccccc1NC(=O)Nc1ccc(OC(F)(F)F)cc1 [Example 3] | 0.048
5 | Cc1cc(Oc2ccccc2NC(=O)Nc2ccc(OC(F)(F)F)cc2)n(-c2cccc(Cl)c2Cl)n1 [Example 4] | 0.089
6 | Cc1cccc(-n2nc(C)cc2Oc2ccccc2NC(=O)Nc2ccc(OC(F)(F)F)cc2)c1 [Example 5] | 0.459
7 | Cc1cc(Oc2ccccc2NC(=O)Nc2ccc(C(C)(C)C)cc2)n(-c2ccccc2Cl)n1 [Example 6] | 0.095
8 | Cc1cc(Oc2ccccc2NC(=O)Nc2ccc(OC(F)(F)F)cc2)n(-c2cccc(Cl)c2)n1 [Example 7] | 0.122
9 | Cc1cc(Oc2ccccc2NC(=O)Nc2ccc(OC(F)(F)F)cc2)n(-c2ccccc2C(F)(F)F)n1 [Example 8] | 0.128
10 | Cc1cc(Oc2ccccc2NC(=O)Nc2ccc(OC(F)(F)F)cc2)n(-c2ccccc2F)n1 [Example 9] | 0.253
11 | Cc1ccc(-n2nc(C)cc2Oc2ccccc2NC(=O)Nc2ccc(OC(F)(F)F)cc2)cc1 [Example 10] | 0.188
12 | COc1ccccc1-n1nc(C)cc1Oc1ccccc1NC(=O)Nc1ccc(OC(F)(F)F)cc1 [Example 11] | 0.991
13 | Cc1cc(Oc2ccccc2NC(=O)Nc2ccc(C(C)(C)C)cc2)n(-c2ccccc2)n1 [Example 12] | 0.207
14 | Cc1cc(Oc2ccccc2NC(=O)Nc2ccc(OC(F)(F)F)cc2)n(-c2ccc(Cl)cc2)n1 [Example 13] | 0.246
15 | Cc1cc(Oc2ccccc2NC(=O)Nc2ccc(OC(F)(F)F)cc2)n(-c2ccc(F)cc2F)n1 [Example 14] | 0.133
16 | Cc1cc(Oc2ccccc2NC(=O)Nc2ccc(OC(F)(F)F)cc2)n(-c2ccc(F)cc2)n1 [Example 15] | 0.283
17 | Cc1cc(Oc2ccccc2NC(=O)Nc2ccc(OC(F)(F)F)cc2)n(-c2cccc(F)c2)n1 [Example 17] | 0.307
18 | COc1ccc(-n2nc(C)cc2Oc2ccccc2NC(=O)Nc2ccc(OC(F)(F)F)cc2)cc1 [Example 18] | 0.731
19 | Cc1cc(Oc2ccccc2NC(=O)Nc2ccc(OC(F)(F)F)cc2)n(-c2c(Cl)cccc2Cl)n1 [Example 19] | 0.142
20 | Cc1cc(Oc2ccccc2NC(=O)Nc2ccc(OC(F)(F)F)cc2)n(-c2ccc(Cl)cc2Cl)n1 [Example 20] | 0.15
21 | Cc1cc(Oc2ncccc2NC(=O)Nc2ccc(C(C)(C)C)cc2)n(-c2ccccc2)n1 [Example 21, 1-(4-tert-Butyl-phenyl)-3-[2-(5-methyl-2-phenyl-2H-pyrazol-3-yloxy)-pyridin-3-yl]-urea] | 0.272
22 | Cc1cc(Oc2ncccc2NC(=O)Nc2ccc(OC(F)(F)F)cc2)n(-c2ccccc2Cl)n1 [Example 22, 1-{2-[2-(2-Chloro-phenyl)-5-methyl-2H-pyrazol-3-yloxy]-pyridin-3-yl}-3-(4-trifluoromethoxy-phenyl)-urea] | 0.139
23 | Cc1cc(Oc2ccncc2NC(=O)Nc2ccc(OC(F)(F)F)cc2)n(-c2ccccc2)n1 [Example 23, 1-[4-(5-Methyl-2-phenyl-2H-pyrazol-3-yloxy)-pyridin-3-yl]-3-(4-trifluoromethoxy-phenyl)-urea] | 8.99
24 | O=C(Nc1ccc(OC(F)(F)F)cc1)Nc1ccccc1Oc1ccnn1-c1ccccc1 [Example 24, 1-[2-(2-Phenyl-2H-pyrazol-3-yloxy)-phenyl]-3-(4-trifluoromethoxy-phenyl)-urea] | 0.306
25 | O=C(Nc1ccc(OC(F)(F)F)cc1)Nc1ccccc1Oc1ccnn1-c1ccccc1Cl [Example 25, 1-{2-[2-(2-Chloro-phenyl)-2H-pyrazol-3-yloxy]-phenyl}-3-(4-trifluoromethoxy-phenyl)-urea] | 0.268
26 | CC(C)(C)c1ccc(NC(=O)Nc2ccccc2Oc2cc(C(=O)O)nn2-c2ccccc2)cc1 [Example 27, 5-{2-[3-(4-tert-Butyl-phenyl)-ureido]-phenoxy}-1-phenyl-1H-pyrazole-3-carboxylic acid] | 7.22
27 | CCc1cc(Oc2ccccc2NC(=O)Nc2ccc(OC(F)(F)F)cc2)n(-c2ccccc2)n1 [Example 28, 1-[2-(5-Ethyl-2-phenyl-2H-pyrazol-3-yloxy)-phenyl]-3-(4-trifluoromethoxy-phenyl)-urea] | > 10

Row | Compound | IC50 [µM]
28 | CC(C)c1cc(Oc2ccccc2NC(=O)Nc2ccc(OC(F)(F)F)cc2)n(-c2ccccc2)n1 [Example 29, 1-[2-(5-Isopropyl-2-phenyl-2H-pyrazol-3-yloxy)-phenyl]-3-(4-trifluoromethoxy-phenyl)-urea] | > 10
29 | Cc1cc(Oc2cc(C)c(F)cc2NC(=O)Nc2ccc(OC(F)(F)F)cc2)n(-c2ccccc2)n1 [Example 30] | 1.24
30 | Cc1cc(Oc2ccc(C#N)cc2NC(=O)Nc2ccc(OC(F)(F)F)cc2)n(-c2ccccc2)n1 [Example 32] | > 10
31 | COc1cccc(Oc2cc(C)nn2-c2ccccc2)c1NC(=O)Nc1ccc(OC(F)(F)F)cc1 [Example 33] | > 10
32 | Cc1cc(Oc2ccccc2NC(=O)Nc2cc(F)ccc2F)n(-c2ccccc2)n1 [Example 34] | 0.8
33 | Cc1cc(Oc2ccccc2NC(=O)Nc2cccc(C(F)(F)F)c2)n(-c2ccccc2)n1 [Example 36] | 1.3
34 | Cc1cc(Oc2ccccc2NC(=O)Nc2cccc(F)c2)n(-c2ccccc2)n1 [Example 38] | 1.91
35 | CSc1ccc(NC(=O)Nc2ccccc2Oc2cc(C)nn2-c2ccccc2)cc1 [Example 39] | 2.22
36 | CCOc1ccc(NC(=O)Nc2ccccc2Oc2cc(C)nn2-c2ccccc2)cc1 [Example 41] | 5.06
37 | COc1ccc(NC(=O)Nc2ccccc2Oc2cc(C)nn2-c2ccccc2)cc1Cl [Example 42] | 6.98
38 | Cc1cc(C)cc(NC(=O)Nc2ccccc2Oc2cc(C)nn2-c2ccccc2)c1 [Example 43] | 7.56
39 | Cc1cc(Oc2ccccc2NC(=O)Nc2ccc(F)c(F)c2F)n(-c2ccccc2)n1 [Example 45] | 8.85
40 | Cc1cc(Oc2ccccc2NC(=O)Nc2cccc(C#N)c2)n(-c2ccccc2)n1 [Example 46] | > 10
41 | Cc1cc(Oc2ccccc2NC(=O)Nc2cc(F)ccc2C)n(-c2ccccc2)n1 [Example 48] | > 10
42 | COc1cc(NC(=O)Nc2ccccc2Oc2cc(C)nn2-c2ccccc2)cc(OC)c1OC [Example 57] | > 10
43 | Cc1cc(Oc2ccccc2NC(=O)Nc2c(C)cccc2C)n(-c2ccccc2)n1 [Example 58] | > 10
44 | Cc1cc(Oc2ccccc2NC(=O)Nc2c(Cl)cccc2C(F)(F)F)n(-c2ccccc2)n1 [Example 59] | > 10
45 | Cc1ccc(NC(=O)Nc2ccccc2Oc2cc(C)nn2-c2ccccc2)c(C)c1 [Example 60] | > 10
46 | Cc1cc(Oc2ccccc2NC(=O)Nc2c(Cl)cccc2Cl)n(-c2ccccc2)n1 [Example 61] | > 10
47 | Cc1cc(Oc2ccccc2NC(=O)Nc2c(C)cccc2Cl)n(-c2ccccc2)n1 [Example 62] | > 10
48 | Cc1cc(Oc2ccccc2NC(=O)Nc2c(C)cccc2C(C)(C)C)n(-c2ccccc2)n1 [Example 77] | > 10
49 | Cc1ccc(C)c(NC(=O)Nc2ccccc2Oc2cc(C)nn2-c2ccccc2)c1 [Example 79] | > 10
50 | COc1cc(NC(=O)Nc2ccccc2Oc2cc(C)nn2-c2ccccc2)cc(OC)c1 [Example 80] | > 10
51 | Cc1cc(Oc2ccccc2NC(=O)Nc2ccccc2Br)n(-c2ccccc2)n1 [Example 82] | > 10
52 | CCOC(=O)C(C)(C)c1ccc(NC(=O)Nc2ccccc2Oc2cc(C)nn2-c2ccccc2Cl)cc1 [Example 83, 2-[4-(3-{2-[2-(2-Chloro-phenyl)-5-methyl-2H-pyrazol-3-yloxy]-phenyl}-ureido)-phenyl]-2-methyl-propionic acid ethyl ester] | 3.39
53 | Cc1cc(Oc2ccccc2NC(=O)Nc2ccc(C(C)(C)C(=O)O)cc2)n(-c2ccccc2Cl)n1 [Example 84, 2-[4-(3-{2-[2-(2-Chloro-phenyl)-5-methyl-2H-pyrazol-3-yloxy]-phenyl}-ureido)-phenyl]-2-methyl-propionic acid] | > 10
